# Data as given in patent US20120035206A1, “PREPARATION AND APPLICATION OF NOVEL ANTIBACTERIAL AND ANTICANCER COMPOUNDS AND THEIR DERIVATIVES” (priority 2009, published 2012).
# Assays:
# Format in all cases: cell-based
# [1] = tested on: C. glabrata; assay: In vitro antibacterial (antifungal) test, two-fold dilution MIC; conditions: Nakaseomyces glabratus, RPMI 1640, culture 2-7 days
# Method: (§1) In vitro antibacterial experiments of 25 compounds as anti-bacterial and anti-cancer compounds in the patent were tested using 14 kinds of bacteria. Tested bacteria: C. albicans, C. tropicalis, C. neoformans, E. floccosum, M. gypseum, A. niger, S. schenekn, C. parapsilosis, C. glabrata, C. Krusei, Trichoderma, Gibberella, Setrosphaeria turcica, Fusarium Oxysporum Vasinfectum. (Bacteria were from the Dermatology Hospital of Chinese Academy of Medical Sciences, Nanjing, China.)
# (§2) The Preparation of tested Bacteria solution was following: incubated Bacteria were added to 5 ml physiological saline, and then they were mashed and placed with ultrasound. The solution was fully mixed, and insoluble substances were removed. The treated solution was called the original bacterium solution. In the test, the bacteria concentration in the original bacterium solution was adjusted to […].
# (§3) Tested Methods: the tested compounds were dissolved in dimethyl sulfoxide. and the solution was diluted with sterile distilled water. And the distilled solution was added to sterilized RPMI 1640 medium. The concentration of the compounds were adjusted to 256, 128, 64, 32, 16, 8, 4, 2, 1, 0.5, 0.25, 0.125 ug*ml-1. Then the adjusted solutions were inoculated with tested bacteria, and the tested systems were placed in the constant temperature oven to culture for 2-7 days. The concentration at which there was no growing of fungi was taken as the minimum inhibitory concentration (MIC).
# [2] = tested on: C. neoformans; assay: as above; conditions: Cryptococcus neoformans, RPMI 1640, culture 2-7 days
# Method: as §1, §2, §3
# [3] = tested on: E. floccosum; assay: as above; conditions: Epidermophyton floccosum, RPMI 1640, culture 2-7 days
# Method: as §1, §2, §3
# [4] = tested on: S. schenekn; assay: as above; conditions: RPMI 1640, culture 2-7 days
# Method: as §1, §2, §3
# [5] = tested on: gibberella; assay: as above; conditions: RPMI 1640, culture 2-7 days
# Method: as §1, §2, §3
# [6] = tested on: A375; assay: In vitro anticancer MTT experiment; conditions: Homo sapiens, A-375, concentration 5 ug/ml, 48 h or 72 h, read-out: inhibition ratio A375
# Method: (§4) In vitro anticancer experiments of 25 compounds as anti-bacterial and anti-cancer compounds in the patent were tested. In the test, 14 kinds of cancer cells were used as tested cancer cells. And the results obtained by MTT method were shown in table 2 (the inhibition ratio was obtained when the concentration was 5 ug/ml). Tested Cancer Cells: SGC7901, HTB-38HT-29, CRL-2233NU-398, CRL-1469PANC-1, B0192, HTB-131MDA-453, CRL-1435PC-3, FTC133, AS24391, HTB-95637. (Cancer cells were from Chinese Military Academy of Medical Sciences). Cells Culture: Culture solution was composed of RPMI 1640 medium, 10% (VAT) Fetal calf serum and 0.01% L-glutamine. Cultured cells were maintained at 37° C. in an incubator with 5% CO2. The cells at logarithmic growth phase were used in the experiment. MTT Experiment: Single cell suspension was obtained by digesting cells with 0.25% trypsin. The cells at logarithmic growth phase were collected and seeded in a 96-well plate at a concentration of 6000-7000 cells per well. After culturing for 12 h at 37° C. in the incubator with 5% CO2, the cells were again incubated with the tested compounds of various concentrations for 48 h or 72 h. Pure cultures and cells without drug were taken as blank reference and negative reference, and 8 Wells of each group were taken. Twenty microliter of MTT (5 mg/mL) was added to each well, and the mixed solutions were incubation for 4 h. The formazan product was dissolved by dimethyl sulfoxide (DMSO, 150 μL), and the optical density (O.D.) was read at 570 nm. The Inhibition Ratio was calculated by the following formula: Inhibition Ratio=(Anegative control−Asample)/(Anegative control−Ablank control)
# [7] = tested on: AS24391; assay: In vitro anticancer MTT experiment; conditions: concentration 5 ug/ml, 48 h or 72 h, read-out: inhibition ratio AS24391
# Method: as §4
# [8] = tested on: B01092; assay: In vitro anticancer MTT experiment; conditions: concentration 5 ug/ml, 48 h or 72 h, read-out: inhibition ratio B01092
# Method: as §4
# [9] = tested on: CRL-1435PC-3; assay: In vitro anticancer MTT experiment; conditions: concentration 5 ug/ml, 48 h or 72 h, read-out: inhibition ratio CRL-1435PC-3
# Method: as §4
# [10] = tested on: CRL-1469PANC-1; assay: In vitro anticancer MTT experiment; conditions: concentration 5 ug/ml, 48 h or 72 h, read-out: inhibition ratio CRL-1469PANC-1
# Method: as §4
# [11] = tested on: CRL-2233SNU-398; assay: In vitro anticancer MTT experiment; conditions: concentration 5 ug/ml, 48 h or 72 h, read-out: inhibition ratio CRL-2233SNU-398
# Method: as §4
# [12] = tested on: FTC 133; assay: In vitro anticancer MTT experiment; conditions: Homo sapiens, concentration 5 ug/ml, 48 h or 72 h, read-out: inhibition ratio FTC 133
# Method: as §4
# [13] = tested on: HTB-131MDA-MB-453; assay: In vitro anticancer MTT experiment; conditions: concentration 5 ug/ml, 48 h or 72 h, read-out: inhibition ratio HTB-131MDA-MB-453
# Method: as §4
# [14] = tested on: HTB-38HT-29; assay: In vitro anticancer MTT experiment; conditions: concentration 5 ug/ml, 48 h or 72 h, read-out: inhibition ratio HTB-38HT-29
# Method: as §4
# [15] = tested on: HTB-94; assay: In vitro anticancer MTT experiment; conditions: concentration 5 ug/ml, 48 h or 72 h, read-out: inhibition ratio HTB-94
# Method: as §4
# [16] = tested on: HTB-95637; assay: In vitro anticancer MTT experiment; conditions: concentration 5 ug/ml, 48 h or 72 h, read-out: inhibition ratio HTB-95637
# Method: as §4
# [17] = tested on: L1210; assay: In vitro anticancer MTT experiment; conditions: Mus musculus, concentration 5 ug/ml, 48 h or 72 h, read-out: inhibition ratio L1210
# Method: as §4
# [18] = tested on: L428; assay: In vitro anticancer MTT experiment; conditions: Homo sapiens, L-428, concentration 5 ug/ml, 48 h or 72 h, read-out: inhibition ratio L428
# Method: as §4
# [19] = tested on: C. Krusei; assay: In vitro antibacterial (antifungal) test, two-fold dilution MIC; conditions: Pichia kudriavzevii, RPMI 1640, culture 2-7 days
# Method: as §1, §2, §3
# [20] = tested on: C. albicans; assay: as above; conditions: Candida albicans, read-out: MIC C. albicas
# Method: as §1, §2, §3
# [21] = tested on: C. parapsilosis; assay: as above; conditions: Lodderomyces parapsilosis, RPMI 1640, culture 2-7 days
# Method: as §1, §2, §3
# [22] = tested on: C. tropicalis; assay: as above; conditions: Candida tropicalis, RPMI 1640, culture 2-7 days
# Method: as §1, §2, §3
# [23] = tested on: Fusarium oxysporum vasinfectum; assay: as above; conditions: RPMI 1640, culture 2-7 days
# Method: as §1, §2, §3
# [24] = tested on: M. gypseum; assay: as above; conditions: Nannizzia gypsea, RPMI 1640, culture 2-7 days
# Method: as §1, §2, §3
# [25] = tested on: Setosphaeria turcica; assay: as above; conditions: Exserohilum turcicum, RPMI 1640, culture 2-7 days
# Method: as §1, §2, §3
# [26] = tested on: Terchoderma; assay: as above; conditions: Trichoderma, RPMI 1640, culture 2-7 days
# Method: as §1, §2, §3
# [27] = tested on: SGC7901; assay: In vitro anticancer MTT experiment; conditions: Homo sapiens, SGC-7901, concentration 5 ug/ml, 48 h or 72 h, read-out: inhibition ratio SGC7901
# Method: as §4
smiles,measurement,setting,value
"Cc1ccc(S/C=C2/CSc3ccc(F)cc3C2=O)cc1F [Compound 23, (E)-6-fluoro-3-(((3-fluoro-4-methylphenyl)thio)methylene)thiochroman-4-one]",MIC,[1],64 µg/mL
same,MIC,[2],16 µg/mL
same,MIC,[3],64 µg/mL
same,MIC,[4],64 µg/mL
same,MIC,[5],16 µg/mL
same,inhibition at 5 µg/mL,[6],49.2%
same,inhibition at 5 µg/mL,[7],44.5%
same,inhibition at 5 µg/mL,[8],39%
same,inhibition at 5 µg/mL,[9],43.9%
same,inhibition at 5 µg/mL,[10],34.2%
same,inhibition at 5 µg/mL,[11],53.3%
same,inhibition at 5 µg/mL,[12],42.4%
same,inhibition at 5 µg/mL,[13],53.5%
same,inhibition at 5 µg/mL,[14],56.1%
same,inhibition at 5 µg/mL,[15],47.9%
same,inhibition at 5 µg/mL,[16],50.6%
same,inhibition at 5 µg/mL,[17],37.6%
same,inhibition at 5 µg/mL,[18],59.5%
"O=C1/C(=C\Cl)CSc2sccc21 [Compound 24, (E)-5-(chloromethylene)-5,6-dihydro-4H-thieno[2,3-b]thiopyran-4-one]",MIC,[19],32 µg/mL
same,MIC,[20],16 µg/mL
same,MIC,[1],16 µg/mL
same,MIC,[2],16 µg/mL
same,MIC,[21],4 µg/mL
same,MIC,[22],8 µg/mL
same,MIC,[3],16 µg/mL
same,MIC,[23],16 µg/mL
same,MIC,[24],8 µg/mL
same,MIC,[4],32 µg/mL
same,MIC,[25],16 µg/mL
same,MIC,[26],16 µg/mL
same,MIC,[5],4 µg/mL
same,inhibition at 5 µg/mL,[6],32.5%
same,inhibition at 5 µg/mL,[7],37%
same,inhibition at 5 µg/mL,[8],56.8%
same,inhibition at 5 µg/mL,[9],39.4%
same,inhibition at 5 µg/mL,[11],45.6%
same,inhibition at 5 µg/mL,[12],45.8%
same,inhibition at 5 µg/mL,[13],47.6%
same,inhibition at 5 µg/mL,[14],43.4%
same,inhibition at 5 µg/mL,[15],51.3%
same,inhibition at 5 µg/mL,[17],85.4%
same,inhibition at 5 µg/mL,[18],47.7%
same,inhibition at 5 µg/mL,[27],33.9%
"Cc1ccc(SC2/C(=C/Cl)CSc3ccc(C)cc32)cc1 (stereo not drawn) [Compound 29, (E)-3-(chloromethylene)-6-methyl-4-(p-tolylthio)thiochroman]",MIC,[21],32 µg/mL
same,MIC,[3],64 µg/mL
same,MIC,[24],64 µg/mL
same,MIC,[4],32 µg/mL
same,MIC,[26],64 µg/mL
same,MIC,[5],16 µg/mL
same,inhibition at 5 µg/mL,[6],30.2%
same,inhibition at 5 µg/mL,[7],15.2%
same,inhibition at 5 µg/mL,[8],26.5%
same,inhibition at 5 µg/mL,[10],17.4%
same,inhibition at 5 µg/mL,[11],21.5%
same,inhibition at 5 µg/mL,[12],32.2%
same,inhibition at 5 µg/mL,[14],19.2%
same,inhibition at 5 µg/mL,[15],23.4%
same,inhibition at 5 µg/mL,[17],33.6%
same,inhibition at 5 µg/mL,[18],13.2%
same,inhibition at 5 µg/mL,[27],23.3%
